# Laboratory results: BindingDB's records for doi:10.1515/dmdi.1990.8.1-2.85 (Duphar, 1990)
# Assays:
# [1] = biological target: Alpha-2C adrenergic receptor (Rattus norvegicus, UniProt P22086)
# [2] = biological target: Sigma non-opioid intracellular receptor 1 (Rattus norvegicus, UniProt Q9R0C9)
# [3] = biological target: Delta-type opioid receptor (Rattus norvegicus, UniProt P33533)
# [4] = biological target: Histamine H1 receptor (Rattus norvegicus, UniProt P31390)
# [5] = biological target: 5-hydroxytryptamine receptor 3A (Mus musculus, UniProt P23979)
# [6] = biological target: Pro-thyrotropin-releasing hormone (Rattus norvegicus, UniProt P01150)
# [7] = biological target: 5-hydroxytryptamine receptor 2A (Rattus norvegicus, UniProt P14842)
# [8] = biological target: Cysteinyl leukotriene receptor 1 (Cavia porcellus, UniProt Q2NNR5)
# [9] = biological target: 5-hydroxytryptamine receptor 2C (Sus scrofa, UniProt G7ZKZ7)
# [10] = biological target: Alpha-1A adrenergic receptor (Rattus norvegicus, UniProt P43140)
# [11] = biological target: Muscarinic acetylcholine receptor M1 (Rattus norvegicus, UniProt P08482)
# [12] = biological target: D(1A) dopamine receptor (Rattus norvegicus, UniProt P18901)
# [13] = biological target: Muscarinic acetylcholine receptor M2 (Rattus norvegicus, UniProt P10980)
# [14] = biological target: Glycine amidinotransferase, mitochondrial (Rattus norvegicus, UniProt P50442)
# [15] = biological target: Beta-1 adrenergic receptor (Rattus norvegicus, UniProt P18090)
# [16] = biological target: Calcium release-activated calcium channel protein 1 (Homo sapiens, UniProt Q96D31)
# [17] = biological target: D(2) dopamine receptor (Rattus norvegicus, UniProt P61169)
# [18] = biological target: Protachykinin-1 (Rattus norvegicus, UniProt P06767)
# [19] = biological target: Mu-type opioid receptor (Rattus norvegicus, UniProt P33535)
# [20] = biological target: Kappa-type opioid receptor (Rattus norvegicus, UniProt P34975)
# [21] = biological target: 5-hydroxytryptamine receptor 1B (Rattus norvegicus, UniProt P28564)
# [22] = biological target: Voltage-dependent calcium channel gamma-1 subunit (Homo sapiens, UniProt Q06432)
# [23] = biological target: 5-hydroxytryptamine 1D receptor (Bos taurus, UniProt Q8MI13)
# [24] = biological target: Muscarinic acetylcholine receptor M3 (Rattus norvegicus, UniProt P08483)
# [25] = biological target: Gamma-aminobutyric acid receptor subunit alpha-1 (Rattus norvegicus, UniProt P62813)
# [26] = biological target: Gastrin/cholecystokinin type B receptor (Rattus norvegicus, UniProt P30553)
# [27] = biological target: Glutamate receptor ionotropic, NMDA 1 (Rattus norvegicus, UniProt P35439)
# Chain of 5-hydroxytryptamine receptor 2A (P14842 whole entry): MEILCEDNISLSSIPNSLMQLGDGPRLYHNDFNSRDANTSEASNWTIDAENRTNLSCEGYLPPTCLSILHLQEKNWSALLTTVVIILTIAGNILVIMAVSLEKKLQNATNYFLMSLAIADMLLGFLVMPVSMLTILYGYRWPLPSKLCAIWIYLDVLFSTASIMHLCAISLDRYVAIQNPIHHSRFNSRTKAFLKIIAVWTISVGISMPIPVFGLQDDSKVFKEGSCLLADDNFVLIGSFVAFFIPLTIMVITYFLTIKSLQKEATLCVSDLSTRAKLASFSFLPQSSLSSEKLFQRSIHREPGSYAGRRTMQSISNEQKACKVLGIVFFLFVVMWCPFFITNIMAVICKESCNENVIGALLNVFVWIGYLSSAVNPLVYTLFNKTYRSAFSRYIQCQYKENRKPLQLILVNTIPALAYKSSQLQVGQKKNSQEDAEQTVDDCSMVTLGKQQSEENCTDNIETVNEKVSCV
# Chain of Glycine amidinotransferase, mitochondrial (P50442 whole entry): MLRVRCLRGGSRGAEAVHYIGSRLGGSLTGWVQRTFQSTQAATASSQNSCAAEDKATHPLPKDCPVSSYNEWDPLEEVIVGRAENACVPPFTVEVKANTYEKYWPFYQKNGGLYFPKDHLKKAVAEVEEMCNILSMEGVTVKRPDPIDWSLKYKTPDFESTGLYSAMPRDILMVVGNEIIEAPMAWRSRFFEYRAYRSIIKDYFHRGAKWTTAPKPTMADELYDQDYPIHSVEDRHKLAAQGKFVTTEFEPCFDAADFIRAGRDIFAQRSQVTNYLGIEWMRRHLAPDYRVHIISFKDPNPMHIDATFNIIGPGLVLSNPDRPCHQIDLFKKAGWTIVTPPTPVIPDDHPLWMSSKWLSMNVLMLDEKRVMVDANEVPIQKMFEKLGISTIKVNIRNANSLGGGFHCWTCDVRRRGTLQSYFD
# Chain of Muscarinic acetylcholine receptor M3 (P08483 whole entry): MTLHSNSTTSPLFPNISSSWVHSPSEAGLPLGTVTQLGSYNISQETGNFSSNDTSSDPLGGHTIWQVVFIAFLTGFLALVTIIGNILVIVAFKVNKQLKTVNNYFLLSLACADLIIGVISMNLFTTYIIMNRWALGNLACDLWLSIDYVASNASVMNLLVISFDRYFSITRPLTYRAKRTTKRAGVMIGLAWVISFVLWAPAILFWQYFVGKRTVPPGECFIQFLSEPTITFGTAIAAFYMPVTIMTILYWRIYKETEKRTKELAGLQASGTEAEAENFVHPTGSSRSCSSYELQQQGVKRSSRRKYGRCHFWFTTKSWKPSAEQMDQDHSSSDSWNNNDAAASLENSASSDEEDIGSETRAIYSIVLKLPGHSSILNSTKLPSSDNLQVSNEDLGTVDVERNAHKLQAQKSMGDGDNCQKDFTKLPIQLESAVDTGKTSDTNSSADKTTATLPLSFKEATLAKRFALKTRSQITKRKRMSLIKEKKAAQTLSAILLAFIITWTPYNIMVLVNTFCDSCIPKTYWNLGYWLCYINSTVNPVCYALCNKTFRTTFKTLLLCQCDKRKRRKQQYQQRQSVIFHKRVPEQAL
# Chain of Gamma-aminobutyric acid receptor subunit alpha-1 (P62813 whole entry): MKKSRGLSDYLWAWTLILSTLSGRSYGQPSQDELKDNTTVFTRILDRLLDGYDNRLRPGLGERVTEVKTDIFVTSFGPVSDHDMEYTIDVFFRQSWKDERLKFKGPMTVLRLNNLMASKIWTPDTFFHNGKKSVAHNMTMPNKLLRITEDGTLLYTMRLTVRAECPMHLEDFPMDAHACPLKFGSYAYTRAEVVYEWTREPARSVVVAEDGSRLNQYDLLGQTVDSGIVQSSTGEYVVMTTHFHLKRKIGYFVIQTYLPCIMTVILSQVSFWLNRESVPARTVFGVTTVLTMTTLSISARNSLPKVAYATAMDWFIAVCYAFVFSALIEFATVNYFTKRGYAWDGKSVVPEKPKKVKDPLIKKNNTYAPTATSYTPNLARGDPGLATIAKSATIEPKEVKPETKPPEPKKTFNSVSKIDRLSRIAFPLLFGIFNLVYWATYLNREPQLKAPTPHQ
# Chain of Cysteinyl leukotriene receptor 1 (Q2NNR5 whole entry): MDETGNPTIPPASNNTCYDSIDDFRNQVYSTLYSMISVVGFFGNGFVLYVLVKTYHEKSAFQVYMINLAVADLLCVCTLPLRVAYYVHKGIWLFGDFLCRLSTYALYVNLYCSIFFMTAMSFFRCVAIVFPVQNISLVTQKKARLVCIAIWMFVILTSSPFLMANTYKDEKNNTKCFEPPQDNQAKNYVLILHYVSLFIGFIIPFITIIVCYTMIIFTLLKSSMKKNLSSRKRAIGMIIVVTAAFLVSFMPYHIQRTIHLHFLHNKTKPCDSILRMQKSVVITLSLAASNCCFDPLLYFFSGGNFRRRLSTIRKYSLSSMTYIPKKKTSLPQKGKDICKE
# Chain of Alpha-1A adrenergic receptor (P43140 whole entry): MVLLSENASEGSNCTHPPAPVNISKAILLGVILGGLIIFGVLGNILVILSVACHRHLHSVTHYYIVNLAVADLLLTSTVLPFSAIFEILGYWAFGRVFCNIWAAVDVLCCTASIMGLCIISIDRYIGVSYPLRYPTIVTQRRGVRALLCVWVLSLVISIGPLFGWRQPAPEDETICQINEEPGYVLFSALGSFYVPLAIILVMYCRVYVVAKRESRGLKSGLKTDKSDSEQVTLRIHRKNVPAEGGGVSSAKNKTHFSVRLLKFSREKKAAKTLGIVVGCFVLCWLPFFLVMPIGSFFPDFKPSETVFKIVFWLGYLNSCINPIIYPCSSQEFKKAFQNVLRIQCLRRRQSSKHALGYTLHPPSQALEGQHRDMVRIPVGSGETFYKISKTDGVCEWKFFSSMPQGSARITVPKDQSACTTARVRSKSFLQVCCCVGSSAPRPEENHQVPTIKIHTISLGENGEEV
# Chain of Mu-type opioid receptor (P33535 whole entry): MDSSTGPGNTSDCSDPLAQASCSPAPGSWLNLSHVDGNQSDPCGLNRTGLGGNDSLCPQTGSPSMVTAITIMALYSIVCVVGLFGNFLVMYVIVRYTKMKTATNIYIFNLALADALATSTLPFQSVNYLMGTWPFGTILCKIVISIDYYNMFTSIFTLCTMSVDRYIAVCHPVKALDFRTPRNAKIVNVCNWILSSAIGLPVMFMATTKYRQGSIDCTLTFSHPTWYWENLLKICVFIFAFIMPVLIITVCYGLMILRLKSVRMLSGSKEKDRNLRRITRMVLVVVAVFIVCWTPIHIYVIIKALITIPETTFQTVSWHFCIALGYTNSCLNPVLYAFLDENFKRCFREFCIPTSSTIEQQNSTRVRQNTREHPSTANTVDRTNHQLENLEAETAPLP
# Chain of 5-hydroxytryptamine receptor 3A (P23979 as listed by the source): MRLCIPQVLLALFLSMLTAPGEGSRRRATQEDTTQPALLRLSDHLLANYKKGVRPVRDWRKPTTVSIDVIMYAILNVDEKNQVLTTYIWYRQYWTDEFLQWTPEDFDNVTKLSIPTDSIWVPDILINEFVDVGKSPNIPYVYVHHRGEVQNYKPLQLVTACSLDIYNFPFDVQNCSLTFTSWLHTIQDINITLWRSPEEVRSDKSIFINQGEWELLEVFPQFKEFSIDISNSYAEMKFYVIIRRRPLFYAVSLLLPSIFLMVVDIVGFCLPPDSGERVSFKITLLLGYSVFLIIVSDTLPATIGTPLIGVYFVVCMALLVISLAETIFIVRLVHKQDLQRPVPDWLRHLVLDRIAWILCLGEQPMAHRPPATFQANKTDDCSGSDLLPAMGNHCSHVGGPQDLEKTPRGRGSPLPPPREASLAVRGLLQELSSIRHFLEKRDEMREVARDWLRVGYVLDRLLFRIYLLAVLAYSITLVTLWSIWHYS
# Chain of Voltage-dependent calcium channel gamma-1 subunit (Q06432 whole entry): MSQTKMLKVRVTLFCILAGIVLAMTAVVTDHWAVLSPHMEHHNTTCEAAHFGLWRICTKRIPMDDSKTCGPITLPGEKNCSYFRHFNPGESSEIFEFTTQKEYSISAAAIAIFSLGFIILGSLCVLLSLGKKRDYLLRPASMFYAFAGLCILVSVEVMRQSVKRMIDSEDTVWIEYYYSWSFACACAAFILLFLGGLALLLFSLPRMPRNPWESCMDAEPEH
# Chain of 5-hydroxytryptamine receptor 1B (P28564 whole entry): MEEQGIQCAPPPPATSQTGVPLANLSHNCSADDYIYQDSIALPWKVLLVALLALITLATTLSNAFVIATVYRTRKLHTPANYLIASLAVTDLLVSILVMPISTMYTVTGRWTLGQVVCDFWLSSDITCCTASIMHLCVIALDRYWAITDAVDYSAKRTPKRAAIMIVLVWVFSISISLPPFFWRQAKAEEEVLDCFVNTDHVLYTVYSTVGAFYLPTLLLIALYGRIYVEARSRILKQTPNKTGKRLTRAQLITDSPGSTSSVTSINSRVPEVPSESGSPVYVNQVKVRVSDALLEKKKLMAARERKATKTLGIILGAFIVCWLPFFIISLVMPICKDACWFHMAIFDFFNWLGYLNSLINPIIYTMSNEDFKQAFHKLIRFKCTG
# Chain of Histamine H1 receptor (P31390 whole entry): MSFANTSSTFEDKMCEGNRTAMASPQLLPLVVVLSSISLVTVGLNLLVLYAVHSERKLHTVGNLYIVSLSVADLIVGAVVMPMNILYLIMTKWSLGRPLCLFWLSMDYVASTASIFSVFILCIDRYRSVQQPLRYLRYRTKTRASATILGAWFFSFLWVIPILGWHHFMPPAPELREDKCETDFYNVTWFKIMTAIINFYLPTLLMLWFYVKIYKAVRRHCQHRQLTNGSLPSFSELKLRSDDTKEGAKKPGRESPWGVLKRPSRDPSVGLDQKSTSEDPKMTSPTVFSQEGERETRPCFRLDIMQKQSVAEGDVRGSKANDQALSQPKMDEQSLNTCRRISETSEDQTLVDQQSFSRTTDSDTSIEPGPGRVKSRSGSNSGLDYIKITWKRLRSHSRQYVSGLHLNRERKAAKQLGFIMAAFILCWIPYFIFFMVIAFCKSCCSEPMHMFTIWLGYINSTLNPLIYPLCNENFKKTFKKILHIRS
# Chain of 5-hydroxytryptamine 1D receptor (Q8MI13 whole entry): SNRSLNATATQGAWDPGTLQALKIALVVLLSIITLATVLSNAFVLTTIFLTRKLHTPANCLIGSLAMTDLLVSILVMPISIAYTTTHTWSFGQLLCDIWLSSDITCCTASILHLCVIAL
smiles,measurement,setting,value
"c1cc2c(c(N3CCNCC3)c1)OCCO2 [1-(2,3-Dihydro-benzo[1,4]dioxin-5-yl)-piperazine]",Ki,[1],3.1 µM
same,Ki,[2],9.3 µM
same,Ki,[3],> 10 µM
same,Ki,[4],3.9 µM
same,Ki,[5],1.3 µM
same,Ki,[6],> 10 µM
same,Ki,[7],1.7 µM
same,Ki,[8],> 10 µM
same,Ki,[9],0.081 µM
same,Ki,[10],0.79 µM
same,Ki,[11],> 10 µM
same,Ki,[12],> 10 µM
same,Ki,[13],> 10 µM
same,Ki,[14],> 10 µM
same,Ki,[15],0.42 µM
same,Ki,[16],> 10 µM
same,Ki,[17],1.1 µM
same,Ki,[18],> 10 µM
same,Ki,[19],> 10 µM
same,Ki,[20],> 10 µM
same,Ki,[21],0.052 µM
same,Ki,[22],> 10 µM
same,Ki,[23],0.39 µM
same,Ki,[24],> 10 µM
same,Ki,[25],> 10 µM
same,Ki,[26],> 10 µM
same,Ki,[27],> 10 µM
